Source: PubChem BioAssay AID248 (DTP/NCI, 2004)
Where “and” joins values, the source holds several entries; their conditions need not be identical. Identical values can stand only once. Inconclusive results and toxic doses are left out. Cut-off read from the data, not from the text of the source: active = T/C of 150% or more; inactive = T/C below 125%.

Test system: L1210 leukemia ip in BDF1 mice, survival T/C
Experiment: NCI In Vivo Anticancer Drug Screen. Data for tumor model L1210 Leukemia (intraperitoneal) in B6D2F1 (BDF1) mice
Settings: endpoint: mean survival time, higher = longer survival
Outline: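 Survival endpoint. Drug-treated group vs vehicle group, expressed as T divided by C. Tumor passaged by transplantation.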

[1] = dose: 100.0 mg/kg/injection, schedule: Q04DX002 (ip), vehicle: saline with Tween-80
[2] = dose: 200.0 mg/kg/injection, schedule: Q04DX002 (ip), vehicle: saline with Tween-80
[3] = dose: 400.0 mg/kg/injection, schedule: Q04DX002 (ip), vehicle: saline with Tween-80
[4] = dose: 100.0 mg/kg/injection, schedule: Q04DX003 (ip), vehicle: saline with Tween-80
[5] = dose: 200.0 mg/kg/injection, schedule: Q04DX003 (ip), vehicle: saline with Tween-80
[6] = dose: 400.0 mg/kg/injection, schedule: Q04DX003 (ip), vehicle: saline with Tween-80
[7] = dose: 100.0 mg/kg/injection, schedule: Q04DX003 (ip), vehicle: saline
[8] = dose: 200.0 mg/kg/injection, schedule: Q04DX003 (ip), vehicle: saline
[9] = dose: 400.0 mg/kg/injection, schedule: Q04DX003 (ip), vehicle: saline

Measured: T/C

CC1CC=C(C2CC(C)CC(N(C)C)C2=N)CC1 (configuration not stated)
inactive: dose: 100.0 mg/kg/injection, schedule: Q01DX009 (sc), vehicle: olive oil, sesame oil, peanut oil 101 % of control | dose: 100.0 mg/kg/injection, schedule: Q04DX003 (sc), vehicle: olive oil, sesame oil, peanut oil 108 % of control | dose: 200.0 mg/kg/injection, schedule: Q01DX009 (sc), vehicle: olive oil, sesame oil, peanut oil 92 % of control | dose: 200.0 mg/kg/injection, schedule: Q04DX003 (sc), vehicle: olive oil, sesame oil, peanut oil 103 % of control | dose: 400.0 mg/kg/injection, schedule: Q04DX003 (sc), vehicle: olive oil, sesame oil, peanut oil 106 % of control

CCCCSC(=O)C(C)O (configuration not stated)
inactive: [1] 99 % of control | [2] 89 % of control | [3] 86 % of control

O=S(=O)(O/N=C1\N=C(NOS(=O)(=O)c2ccccc2)c2ccccc21)c1ccccc1
inactive: dose: 100.0 mg/kg/injection, schedule: Q01DX001 (ip), vehicle: saline with Tween-80 87 % of control and 92 % of control | [1] 102 % of control and 90 % of control | [4] 101 % of control | dose: 200.0 mg/kg/injection, schedule: Q01DX001 (ip), vehicle: saline with Tween-80 97 % of control and 91 % of control | [2] 98 % of control and 92 % of control | [5] 94 % of control | dose: 400.0 mg/kg/injection, schedule: Q01DX001 (ip), vehicle: saline with Tween-80 87 % of control and 92 % of control | [3] 112 % of control and 87 % of control | [6] 92 % of control

CC(C)C(C(=O)O)N1C(=O)C2C3CCC(O3)C2C1=O (configuration not stated)
inactive: [7] 98 % of control and 102 % of control | [8] 98 % of control and 89 % of control | [9] 98 % of control and 103 % of control

CC1CN1C1=C(Br)C(=O)C(N2CC2C)=C(Br)C1=O (configuration not stated)
inactive: dose: 1.56 mg/kg/injection, schedule: Q01DX009 (ip), vehicle: Klucel (hydroxypropylcellulose) (HPC) 95 % of control | dose: 1.56 mg/kg/injection, schedule: Q04DX003 (ip), vehicle: saline with Tween-80 98 % of control | dose: 3.12 mg/kg/injection, schedule: Q01DX009 (ip), vehicle: Klucel (hydroxypropylcellulose) (HPC) 98 % of control | dose: 3.12 mg/kg/injection, schedule: Q04DX003 (ip), vehicle: saline with Tween-80 104 % of control | dose: 6.25 mg/kg/injection, schedule: Q01DX009 (ip), vehicle: Klucel (hydroxypropylcellulose) (HPC) 95 % of control | dose: 6.25 mg/kg/injection, schedule: Q04DX003 (ip), vehicle: saline with Tween-80 98 % of control | dose: 12.5 mg/kg/injection, schedule: Q01DX009 (ip), vehicle: Klucel (hydroxypropylcellulose) (HPC) 90 % of control | dose: 12.5 mg/kg/injection, schedule: Q04DX003 (ip), vehicle: saline with Tween-80 95 % of control | dose: 25.0 mg/kg/injection, schedule: Q04DX003 (ip), vehicle: saline with Tween-80 98 % of control

CCOP(=O)(CC(=O)OC)OCC
inactive: dose: 50.0 mg/kg/injection, schedule: Q04DX003 (ip), vehicle: saline 102 % of control | dose: 100.0 mg/kg/injection, schedule: Q01DX009 (ip), vehicle: saline 103 % of control | [7] 100 % of control | dose: 200.0 mg/kg/injection, schedule: Q01DX009 (ip), vehicle: saline 101 % of control | [8] 102 % of control | dose: 400.0 mg/kg/injection, schedule: Q01DX009 (ip), vehicle: saline 88 % of control | [9] 102 % of control

O=[N+]([O-])c1ccccc1SSc1ccccc1[N+](=O)[O-]
inactive: dose: 50.0 mg/kg/injection, schedule: Q01DX001 (ip), vehicle: carboxymethylcellulose (CMC) 105 % of control | dose: 100.0 mg/kg/injection, schedule: Q01DX001 (ip), vehicle: carboxymethylcellulose (CMC) 94 % of control | dose: 100.0 mg/kg/injection, schedule: Q01DX009 (ip), vehicle: saline with Tween-80 95 % of control | dose: 200.0 mg/kg/injection, schedule: Q01DX001 (ip), vehicle: carboxymethylcellulose (CMC) 109 % of control | dose: 200.0 mg/kg/injection, schedule: Q01DX009 (ip), vehicle: saline with Tween-80 98 % of control | dose: 400.0 mg/kg/injection, schedule: Q01DX001 (ip), vehicle: carboxymethylcellulose (CMC) 100 % of control | dose: 400.0 mg/kg/injection, schedule: Q01DX009 (ip), vehicle: saline with Tween-80 98 % of control

CCOC(=O)C1Oc2ccc(Cl)cc2C1=O (configuration not stated)
inactive: dose: 100.0 mg/kg/injection, schedule: Q04DX002 (ip), vehicle: gum acacia 97 % of control | dose: 200.0 mg/kg/injection, schedule: Q04DX002 (ip), vehicle: gum acacia 97 % of control | dose: 400.0 mg/kg/injection, schedule: Q04DX002 (ip), vehicle: gum acacia 101 % of control

O=C(O)CNCc1cccnc1
inactive: dose: 100.0 mg/kg/injection, schedule: Q01DX005 (ip), vehicle: water 94 % of control | dose: 100.0 mg/kg/injection, schedule: Q04DX003 (ip), vehicle: water 97 % of control | dose: 200.0 mg/kg/injection, schedule: Q01DX005 (ip), vehicle: water 100 % of control | dose: 200.0 mg/kg/injection, schedule: Q04DX003 (ip), vehicle: water 97 % of control | dose: 400.0 mg/kg/injection, schedule: Q01DX005 (ip), vehicle: water 96 % of control | dose: 400.0 mg/kg/injection, schedule: Q04DX003 (ip), vehicle: water 104 % of control

CC1CN(Cc2ccccc2)C(=O)N(c2ccccc2)C1=O (configuration not stated)
inactive: dose: 100.0 mg/kg/injection, schedule: Q01DX Z (ip), vehicle: methylcellulose (MC) 92 % of control

Brc1ccc(N2N=NC3CNCC32)cc1 (configuration not stated)
inactive: [4] 92 % of control | [5] 105 % of control | [6] 94 % of control

CCOC(=O)C1NC(=O)C(C(=O)OCC)C1C(C)C (configuration not stated)
inactive: dose: 75.0 mg/kg/injection, schedule: Q04DX003 (ip), vehicle: Klucel (hydroxypropylcellulose) (HPC) 102 % of control | dose: 100.0 mg/kg/injection, schedule: Q01DX001 (ip), vehicle: Klucel (hydroxypropylcellulose) (HPC) 103 % of control | dose: 150.0 mg/kg/injection, schedule: Q04DX003 (ip), vehicle: Klucel (hydroxypropylcellulose) (HPC) 98 % of control | dose: 200.0 mg/kg/injection, schedule: Q01DX001 (ip), vehicle: Klucel (hydroxypropylcellulose) (HPC) 103 % of control | dose: 300.0 mg/kg/injection, schedule: Q04DX003 (ip), vehicle: Klucel (hydroxypropylcellulose) (HPC) 100 % of control | dose: 400.0 mg/kg/injection, schedule: Q01DX001 (ip), vehicle: Klucel (hydroxypropylcellulose) (HPC) 109 % of control

COc1ccccc1/C=N\N/C(N)=N\N=C\c1ccccc1OC
inactive: dose: 15.0 mg/kg/injection, schedule: Q01DX Z (ip), vehicle: carboxymethylcellulose (CMC) 98 % of control | dose: 30.0 mg/kg/injection, schedule: Q01DX Z (ip), vehicle: carboxymethylcellulose (CMC) 103 % of control | dose: 60.0 mg/kg/injection, schedule: Q01DX Z (ip), vehicle: carboxymethylcellulose (CMC) 103 % of control and 117 % of control | dose: 120.0 mg/kg/injection, schedule: Q01DX Z (ip), vehicle: carboxymethylcellulose (CMC) 101 % of control and 117 % of control | dose: 240.0 mg/kg/injection, schedule: Q01DX Z (ip), vehicle: carboxymethylcellulose (CMC) 108 % of control | dose: 240.0 mg/kg/injection, schedule: Q01DX Z (oral), vehicle: carboxymethylcellulose (CMC) 97 % of control | dose: 480.0 mg/kg/injection, schedule: Q01DX Z (ip), vehicle: carboxymethylcellulose (CMC) 121 % of control | dose: 480.0 mg/kg/injection, schedule: Q01DX Z (oral), vehicle: carboxymethylcellulose (CMC) 105 % of control | dose: 960.0 mg/kg/injection, schedule: Q01DX Z (oral), vehicle: carboxymethylcellulose (CMC) 95 % of control | dose: 1920.0 mg/kg/injection, schedule: Q01DX Z (oral), vehicle: carboxymethylcellulose (CMC) 105 % of control
